The compounds below were run against T1, chimeric human H3 receptor (Homo sapiens, UniProt Q9Y5N1, E19D) (assay: Chimeric human H3 receptor GTP binding assay (agonist-stimulated GTP-gamma35S binding, Example 7)). Settings: Table II "Ki", symbol "*": Ki in the assay of Example 7; read-out: Ki.
T1 construct: made in house; host or cells: Sf9 insect cells (baculovirus infection); P2 membrane preparation
Type: biochemical
Summary of the method: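 Sf9 membranes co-expressing the chimeric receptor and heterotrimeric G-protein subunits, 35 μg protein per tube, in pH 7.4 Tris buffer with 10 μM GDP. Test compounds at 10^−10 to 10^−6 M with 1 μM histamine, 60 min at room temperature. Filter-bound GTP-gamma^35S read by scintillation; IC50 from non-linear regression of dose-response curves.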

T1 sequence (Q9Y5N1 with tags, fused parts or gaps E19D): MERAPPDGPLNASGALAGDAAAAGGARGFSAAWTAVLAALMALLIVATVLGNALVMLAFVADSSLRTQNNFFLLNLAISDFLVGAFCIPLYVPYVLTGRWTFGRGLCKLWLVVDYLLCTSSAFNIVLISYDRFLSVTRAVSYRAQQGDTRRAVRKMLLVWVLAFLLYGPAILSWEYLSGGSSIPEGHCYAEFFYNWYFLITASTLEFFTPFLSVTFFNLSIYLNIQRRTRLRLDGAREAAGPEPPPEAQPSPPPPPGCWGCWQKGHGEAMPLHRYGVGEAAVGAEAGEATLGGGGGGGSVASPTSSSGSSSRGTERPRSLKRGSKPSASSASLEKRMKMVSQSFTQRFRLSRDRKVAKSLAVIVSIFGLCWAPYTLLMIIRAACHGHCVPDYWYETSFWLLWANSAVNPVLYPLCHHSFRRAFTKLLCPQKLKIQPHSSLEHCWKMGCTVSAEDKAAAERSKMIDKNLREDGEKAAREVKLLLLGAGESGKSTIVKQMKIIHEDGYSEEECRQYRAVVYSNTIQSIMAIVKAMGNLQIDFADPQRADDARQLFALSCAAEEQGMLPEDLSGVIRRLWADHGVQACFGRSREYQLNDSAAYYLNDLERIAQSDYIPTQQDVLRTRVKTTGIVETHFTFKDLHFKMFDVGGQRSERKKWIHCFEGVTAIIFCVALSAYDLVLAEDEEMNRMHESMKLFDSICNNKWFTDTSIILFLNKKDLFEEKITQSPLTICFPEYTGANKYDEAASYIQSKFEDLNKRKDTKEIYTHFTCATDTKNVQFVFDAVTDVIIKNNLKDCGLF

Ki, < 1 µM:
O=C(CN1CCN(c2cccc(-c3ccc(F)cc3)c2)CC1)N1CCN(C2CCC2)CC1 [Compound 773, 1-cyclobutyl-4-{[4-(4′-fluorobiphenyl-3-yl)piperazin-1-yl]acetyl}piperazine]
O=C(CN1CCN(c2ccc(-c3ccc(F)cc3)cc2)CC1)N1CCN(C2CCC2)CC1 [Compound 774, 1-cyclobutyl-4-{[4-(4′-fluorobiphenyl-4-yl)piperazin-1-yl]acetyl}piperazine]
O=C(CN1CCN(c2ccc(F)cc2)CC1)N1CCN(C2CCC2)CC1 [Compound 775, 1-cyclobutyl-4-{[4-(4-fluorophenyl)piperazin-1-yl]acetyl}piperazine]
CC(C)c1ccc(-c2ccc(N3CCN(CC(=O)N4CCN(C5CCC5)CC4)CC3)cc2)cc1 [Compound 778, 1-cyclobutyl-4-{[4-(4′-isopropylbiphenyl-4-yl)piperazin-1-yl]acetyl}piperazine]
COc1ccc(-c2ccc(N3CCN(CC(=O)N4CCN(C5CCC5)CC4)CC3)cc2)c(C)c1 [Compound 779, 1-cyclobutyl-4-{[4-(4′-methoxy-2′-methylbiphenyl-4-yl)piperazin-1-yl]acetyl}piperazine]
COc1ccc(-c2ccc(N3CCN(CC(=O)N4CCN(C5CCC5)CC4)CC3)cc2)cc1C [Compound 780, 1-cyclobutyl-4-{[4-(4′-methoxy-3′-methylbiphenyl-4-yl)piperazin-1-yl]acetyl}piperazine]
COc1ccc(-c2ccc(N3CCN(CC(=O)N4CCN(C5CCC5)CC4)CC3)cc2)cc1 [Compound 781, 1-cyclobutyl-4-{[4-(4′-methoxybiphenyl-4-yl)piperazin-1-yl]acetyl}piperazine]
COc1ccc(N2CCN(CC(=O)N3CCN(C4CCC4)CC3)CC2)cc1 [Compound 782, 1-cyclobutyl-4-{[4-(4-methoxyphenyl)piperazin-1-yl]acetyl}piperazine]
Cc1ccc(-c2ccc(N3CCN(CC(=O)N4CCN(C5CCC5)CC4)CC3)cc2)cc1 [Compound 784, 1-cyclobutyl-4-{[4-(4′-methylbiphenyl-4-yl)piperazin-1-yl]acetyl}piperazine]
Cc1ccc(N2CCN(CC(=O)N3CCN(C4CCC4)CC3)CC2)cc1 [Compound 785, 1-cyclobutyl-4-{[4-(4-methylphenyl)piperazin-1-yl]acetyl}piperazine]
O=C(CN1CCN(c2ccc([N+](=O)[O-])cc2)CC1)N1CCN(C2CCC2)CC1 [Compound 786, 1-cyclobutyl-4-{[4-(4-nitrophenyl)piperazin-1-yl]acetyl}piperazine]
O=C(CN1CCN(c2ccc(-c3ccc(Oc4ccccc4)cc3)cc2)CC1)N1CCN(C2CCC2)CC1 [Compound 787, 1-cyclobutyl-4-{[4-(4′-phenoxybiphenyl-4-yl)piperazin-1-yl]acetyl}piperazine]
CCCOc1ccc(-c2ccc(N3CCN(CC(=O)N4CCN(C5CCC5)CC4)CC3)cc2)cc1 [Compound 789, 1-cyclobutyl-4-{[4-(4′-propoxybiphenyl-4-yl)piperazin-1-yl]acetyl}piperazine]

Same assay, conditions: Table II, "*" in Ki; assay of Example 7; read-out: Ki

Ki, < 1 µM:
Cc1ccc(N2CCN(CC(=O)N3CCN(C4CCC4)CC3)CC2)cc1C [Compound 736, 1-cyclobutyl-4-{[4-(3,4-dimethylphenyl)piperazin-1-yl]acetyl}piperazine]
O=C(CN1CCN(c2ccc(-c3cc(Cl)cc(Cl)c3)cc2)CC1)N1CCN(C2CCC2)CC1 [Compound 739, 1-cyclobutyl-4-{[4-(3′,5′-dichlorobiphenyl-4-yl)piperazin-1-yl]acetyl}piperazine]
O=C(CN1CCN(c2ccc(-c3cc(F)cc(F)c3)cc2)CC1)N1CCN(C2CCC2)CC1 [Compound 740, 1-cyclobutyl-4-{[4-(3′,5′-difluorobiphenyl-4-yl)piperazin-1-yl]acetyl}piperazine]
Cc1cc(C)cc(-c2ccc(N3CCN(CC(=O)N4CCN(C5CCC5)CC4)CC3)cc2)c1 [Compound 743, 1-cyclobutyl-4-{[4-(3′,5′-dimethylbiphenyl-4-yl)piperazin-1-yl]acetyl}piperazine]
COC[C@H]1CCCN1C(=O)c1cccc(N2CCN(CC(=O)N3CCN(C4CCC4)CC3)CC2)c1 [Compound 744, 1-cyclobutyl-4-{[4-(3-{[(2R)-2-(methoxymethyl)pyrrolidin-1-yl]car-bonyl}phenyl)piperazin-1-yl]acetyl}piperazine]
COC[C@@H]1CCCN1C(=O)c1cccc(N2CCN(CC(=O)N3CCN(C4CCC4)CC3)CC2)c1 [Compound 745, 1-cyclobutyl-4-{[4-(3-{[(2S)-2-(methoxymethyl)pyrrolidin-1-yl]car-bonyl}phenyl)piperazin-1-yl]acetyl}piperazine]
CCOc1cccc(-c2ccc(N3CCN(CC(=O)N4CCN(C5CCC5)CC4)CC3)cc2)c1 [Compound 746, 1-cyclobutyl-4-{[4-(3′-ethoxybiphenyl-4-yl)piperazin-1-yl]acetyl}piperazine]
CCc1cccc(-c2ccc(N3CCN(CC(=O)N4CCN(C5CCC5)CC4)CC3)cc2)c1 [Compound 747, 1-cyclobutyl-4-{[4-(3′-ethylbiphenyl-4-yl)piperazin-1-yl]acetyl}piperazine]
COc1ccc(-c2cccc(N3CCN(CC(=O)N4CCN(C5CCC5)CC4)CC3)c2)cc1F [Compound 749, 1-cyclobutyl-4-{[4-(3′-fluoro-4′-methoxybiphenyl-3-yl)piperazin-1-yl]acetyl}piperazine]
COc1ccc(-c2ccc(N3CCN(CC(=O)N4CCN(C5CCC5)CC4)CC3)cc2)cc1F [Compound 750, 1-cyclobutyl-4-{[4-(3′-fluoro-4′-methoxybiphenyl-4-yl)piperazin-1-yl]acetyl}piperazine]
Cc1ccc(-c2ccc(N3CCN(CC(=O)N4CCN(C5CCC5)CC4)CC3)cc2)cc1F [Compound 751, 1-cyclobutyl-4-{[4-(3′-fluoro-4′-methylbiphenyl-4-yl)piperazin-1-yl]acetyl}piperazine]
O=C(CN1CCN(c2ccc(-c3cccc(F)c3)cc2)CC1)N1CCN(C2CCC2)CC1 [Compound 753, 1-cyclobutyl-4-{[4-(3′-fluorobiphenyl-4-yl)piperazin-1-yl]acetyl}piperazine]
O=C(CN1CCN(c2cccc(F)c2)CC1)N1CCN(C2CCC2)CC1 [Compound 754, 1-cyclobutyl-4-{[4-(3-fluorophenyl)piperazin-1-yl]acetyl}piperazine]
CC(C)Oc1cccc(-c2ccc(N3CCN(CC(=O)N4CCN(C5CCC5)CC4)CC3)cc2)c1 [Compound 755, 1-cyclobutyl-4-{[4-(3′-isopropoxybiphenyl-4-yl)piperazin-1-yl]acetyl}piperazine]
CC(C)c1cccc(-c2ccc(N3CCN(CC(=O)N4CCN(C5CCC5)CC4)CC3)cc2)c1 [Compound 756, 1-cyclobutyl-4-{[4-(3′-isopropylbiphenyl-4-yl)piperazin-1-yl]acetyl}piperazine]
COc1cccc(-c2ccc(N3CCN(CC(=O)N4CCN(C5CCC5)CC4)CC3)cc2)c1 [Compound 758, 1-cyclobutyl-4-{[4-(3′-methoxybiphenyl-4-yl)piperazin-1-yl]acetyl}piperazine]
COc1cccc(N2CCN(CC(=O)N3CCN(C4CCC4)CC3)CC2)c1 [Compound 759, 1-cyclobutyl-4-{[4-(3-methoxyphenyl)piperazin-1-yl]acetyl}piperazine]
Cc1cccc(-c2ccc(N3CCN(CC(=O)N4CCN(C5CCC5)CC4)CC3)cc2)c1 [Compound 762, 1-cyclobutyl-4-{[4-(3′-methylbiphenyl-4-yl)piperazin-1-yl]acetyl}piperazine]
Cc1cccc(N2CCN(CC(=O)N3CCN(C4CCC4)CC3)CC2)c1 [Compound 763, 1-cyclobutyl-4-{[4-(3-methylphenyl)piperazin-1-yl]acetyl}piperazine]
COC[C@H]1CCCN1C(=O)c1ccc(N2CCN(CC(=O)N3CCN(C4CCC4)CC3)CC2)cc1 [Compound 767, 1-cyclobutyl-4-{[4-(4-{[(2R)-2-(methoxymethyl)pyrrolidin-1-yl]carbonyl}phenyl)piperazin-1-yl]acetyl}piperazine]
COC[C@@H]1CCCN1C(=O)c1ccc(N2CCN(CC(=O)N3CCN(C4CCC4)CC3)CC2)cc1 [Compound 768, 1-cyclobutyl-4-{[4-(4-{[(2S)-2-(methoxymethyl)pyrrolidin-1-yl]carbonyl}phenyl)piperazin-1-yl]acetyl}piperazine]
CCOc1ccc(-c2ccc(N3CCN(CC(=O)N4CCN(C5CCC5)CC4)CC3)cc2)cc1 [Compound 769, 1-cyclobutyl-4-{[4-(4′-ethoxybiphenyl-4-yl)piperazin-1-yl]acetyl}piperazine]
CCc1ccc(-c2ccc(N3CCN(CC(=O)N4CCN(C5CCC5)CC4)CC3)cc2)cc1 [Compound 770, 1-cyclobutyl-4-{[4-(4′-ethylbiphenyl-4-yl)piperazin-1-yl]acetyl}piperazine]
Cc1cc(-c2ccc(N3CCN(CC(=O)N4CCN(C5CCC5)CC4)CC3)cc2)ccc1F [Compound 771, 1-cyclobutyl-4-{[4-(4′-fluoro-3′-methylbiphenyl-4-yl)piperazin-1-yl]acetyl}piperazine]

Reference: US7851474B2, “Dipiperazinyl ketones and related analogues” (Neurogen Corporation, priority 2005, dated 2010)
